Patent EP4732840A1, “AGENT FOR SUPPRESSING PROLIFERATION OF BACTERIA, AND COSMETIC, QUASI-DRUG, AND PHARMACEUTICAL COMPOSITION CONTAINING SAID AGENT, AND METHOD FOR SUPPRESSING PROLIFERATION OF BACTERIA” (Toyo Sugar Refining Co., Ltd., priority 2023, dated 2024)

Legend:
[1] = tested on: Lactobacillus crispatus; assay: Bacterial proliferation test (turbidity, absorbance at 600 nm); format: cell-based, Lactobacillus crispatus (ATCC 33820); conditions: C-mo 2G at final concentrations of 0.5%, 1.0%, 2.0% in medium; 1 culture day, 37°C, 5%CO2; n = 3
Text: (§1) C-mo2G (manufactured by Toyo Sugar Refining Co., Ltd.) was used as glyceryl glucoside. Furthermore, as a positive control, penicillin-streptomycin (manufactured by FUJIFILM Wako Pure Chemical Corporation, No. 168-23191) was used. Sterile water was used as a control.
(§2) Bacteria and media shown in Table 1 were used, and cultured under the conditions in Table 1.
(§3) As a GAM semi-fluid high layer medium, NO.05424 manufactured by NISSUI PHARMACEUTICAL CO., LTD. was used.
(§4) The number of culture days was set to such a number of days that bacterial proliferation could be visually confirmed in the control.
(§5) Each bacterium in which a frozen stock (15% (vol/vol) glycerin was added to the medium) was inoculated into 9 mL of the medium, and culture was started. After culturing until reaching the logarithmic growth phase, the medium was well stirred to make the turbidity uniform, and then the absorbance at 600 nm was measured. The medium was diluted with a medium such that the absorbance (600 nm) was 0.1, and this was used as a bacterial diluent.
(§6) C-mo 2G was added to the medium at final concentrations of 0.5%, 1.0%, and 2.0%. […]
(§7) 200 µL of the bacterial diluent was added to 9 mL of the medium containing the test substance, and culture was started. After culturing, the medium was well stirred to make the turbidity uniform, and then the absorbance (turbidity) at 600 nm was measured. […]

[2] = tested on: Lactobacillus iners; assay: as above; format: cell-based, Lactobacillus iners (ATCC 55195); conditions: C-mo 2G at final concentrations of 0.5%, 1.0%, 2.0% in medium; 3 culture days, 37°C, 5%CO2; n = 3
Text: as §1, §2, §3, §4, §5, §6, §7

[3] = tested on: Gardnerella vaginalis; assay: as above; format: cell-based, Gardnerella vaginalis (ATCC 14018); conditions: C-mo 2G at final concentrations of 0.5%, 1.0%, 2.0% in medium; 3 culture days, 37°C, 5%CO2; n = 3; effect concentration dependent
Text: as §1, §2, §3, §4, §5, §6, §7

[4] = tested on: Atopobium vaginae; assay: as above; format: cell-based, Atopobium vaginae (ATCC BAA-55); conditions: C-mo 2G at final concentrations of 0.5%, 1.0%, 2.0% in medium; 2 culture days, 37°C, anaerobic; n = 3; effect concentration dependent
Text: as §1, §2, §3, §4
An experiment was performed using Atopobium vaginae as a representative bacterium of the genus Atopobium.
as §5, with “diluent. […]” for “diluent.”
as §7

[5] = tested on: Propionibacterium acnes; assay: Proliferation test with paper disc on agar plate (growth inhibition zone); format: cell-based, Propionibacterium acnes (JCM 6425); conditions: test substance (COSARTE-2G or glycerin) diluted to 40% by mass, 50 µL on paper disc; GAM agar, anaerobic, 48 hours
Description: (§8) As glyceryl glucoside, COSARTE-2G (manufactured by Toyo Sugar Refining Co., Ltd.) was diluted with ion-exchanged water such that COSARTE-2G was 40% by mass. Further, as a positive control, BD (Sensi-Disc Tetracycline 30, Antimicrobial Susceptibility Test Kit, manufactured by Nippon Becton Dickinson Company, Ltd.) was used. As a control, glycerin (manufactured by Nacalai Tesque Inc.) was diluted with ion-exchanged water to be 40% by mass.
Propionibacterium acnes (JCM 6425) was used as a representative strain of Propionibacterium acnes. A Propionibacterium acnes strain was added to GAM liquid medium and pre-cultured at 35°C under anaerobic conditions using an AnaeroPack.
(§9) GAM agar plates and BHI agar plates were prepared. Pre-cultured Propionibacterium acnes, Streptococcus mutans, and Staphylococcus aureus strains in the logarithmic growth phase were suspended in liquid medium to a concentration of 1 × 10^7 cells/mL, and 50 µL of this suspension was taken and spread onto each agar plate medium using a glass spreader.
(§10) Each test substance was sterilized by filtration using a membrane filter, and then 50 µL was impregnated into a sterilized paper disc. […]
(§11) The effect of inhibiting the proliferation of bacteria was determined by the presence or absence and size of the growth inhibition zone around the paper disc.

[6] = tested on: Streptococcus mutans; assay: as above; format: cell-based, Streptococcus mutans (JCM 5705); conditions: test substance (COSARTE-2G or glycerin) diluted to 40% by mass, 50 µL on paper disc; BHI agar, 48 hours
Description: as §8
Streptococcus mutans (JCM 5705) was used as a representative strain of Streptococcus mutans. A Streptococcus mutans strain was added to BHI liquid medium and pre-cultured at 35°C.
as §9
Each test substance was sterilized by filtration using a membrane filter, and then 50 µL was impregnated into a sterilized paper disc. A paper disk was aseptically placed on an agar plate medium, and cultured for 48 hours under conditions suitable for each bacterial strain.
as §11

[7] = tested on: Staphylococcus aureus; assay: as above; format: cell-based, Staphylococcus aureus (NBRC 13276); conditions: test substance (COSARTE-2G or glycerin) diluted to 40% by mass, 50 µL on paper disc; BHI agar, 48 hours
Description: as §8
Staphylococcus aureus (NBRC 13276) was used as a representative strain of Staphylococcus aureus. A Staphylococcus aureus strain was added to BHI liquid medium and pre-cultured at 37°C.
as §9, §10, §11

[8] = Primary skin irritation test; format: in vivo; conditions: rabbit
[9] = Repeated skin irritation test; conditions: in vivo
[10] = Skin sensitization test (intracutaneous Maximization method); format: in vivo; conditions: guinea pig intracutaneous Maximization method
[11] = Phototoxicity test; format: in vivo; conditions: guinea pig
[12] = Photosensitization test; conditions: in vivo
[13] = Eye irritation test; format: in vivo; conditions: rabbit
[14] = Mutagenicity test (in vitro)
[15] = Human patch test; format: in vivo
[16] = Water solubility; format: physicochemical
[17] = reported in Patent Literature 2; cited from earlier work
[18] = tested on: Escherichia coli; conditions: viable count after 24 hours or 48 hours exposure; Patent Literature 2; cited from earlier work
[19] = tested on: Staphylococcus aureus; conditions: viable count after 24 hours or 48 hours exposure; Patent Literature 2; cited from earlier work
[20] = tested on: Pseudomonas aeruginosa; conditions: viable count after 24 hours or 48 hours exposure; Patent Literature 2; cited from earlier work
[21] = tested on: Pseudomonas cepacia; conditions: viable count after 24 hours or 48 hours exposure; Patent Literature 2; cited from earlier work
[22] = tested on: Staphylococcus epidermidis; conditions: viable count after 24 hours or 48 hours exposure; Patent Literature 2; cited from earlier work
[23] = tested on: Corynebacterium minutissimum; conditions: viable count after 24 hours or 48 hours exposure; Patent Literature 2; cited from earlier work

glyceryl glucoside
proliferation of Lactobacillus crispatus (number of bacteria, absorbance 600 nm) relative to control [1]: little change in the number | proliferation of Lactobacillus iners (number of bacteria, absorbance 600 nm) relative to control [2]: increased | proliferation of Gardnerella vaginalis (absorbance 600 nm) relative to control [3]: significantly inhibited | proliferation of Atopobium vaginae (absorbance 600 nm) relative to control [4]: significantly inhibited | growth inhibition zone around the paper disc, Propionibacterium acnes [5]: no growth inhibition zone | growth inhibition zone around the paper disc, Streptococcus mutans [6]: no growth inhibition zone | growth inhibition zone around the paper disc, Staphylococcus aureus [7]: no growth inhibition zone | toxicity in primary skin irritation test [8]: no toxicity | toxicity in repeated skin irritation test [9]: no toxicity | toxicity in skin sensitization test [10]: no toxicity | toxicity in phototoxicity test [11]: no toxicity | toxicity in photosensitization test [12]: no toxicity | toxicity in eye irritation test [13]: no toxicity | toxicity in mutagenicity test [14]: no toxicity | toxicity in human patch test [15]: no toxicity | water solubility [16]: good

OCC(O)CO [Glycerin, glycerin, reference compound]
growth inhibition zone around the paper disc, Propionibacterium acnes [5]: same result as glyceryl glucoside | growth inhibition zone around the paper disc, Streptococcus mutans [6]: same result as glyceryl glucoside | growth inhibition zone around the paper disc, Staphylococcus aureus [7]: same result as glyceryl glucoside

α-D-glucopyranosylglycerol
skin irritation [17]: no skin irritation | antimicrobial activity against Escherichia coli [18]: antimicrobial activity | antimicrobial activity against Staphylococcus aureus [19]: antimicrobial activity | antimicrobial activity against Pseudomonas aeruginosa [20]: antimicrobial activity | antimicrobial activity against Pseudomonas cepacia [21]: antimicrobial activity | antimicrobial activity against Staphylococcus epidermidis [22]: antimicrobial activity | antimicrobial activity against Corynebacterium minutissimum [23]: antimicrobial activity
